Data set [1] is described as follows: Measurement of vapor pressures (gas flow method). It is filed as physicochemical. The note with it: for vapor pressure: gas flow method. Here is the method:
Measurement of vapor pressures of p-phenylenediamine(PPD), N,N,N',N'-tetramethyl-p-phenylenediamine (TMPD), TEPD, TCPD, THEPD and TDHPD
The PPD(manufactured by Wakoh Junyaku K.K), TMPD (manufactured by Tokyo Kasei K.K), further, TEPD, TCPD, THEPD and TDHPO obtained in the course of the procedures of Synthesis Examples 1 to 4 were checked for their vapor pressures.
Vapor densities (amount of evaporation/volume) of the solid samples (PPD, TMPD, TEPD, TCPD, THEPD and TDHPD) were measured by contacting each sample heated to a predetermined temperature with a stream of carrier gas (nitrogen) and saturating the sample with vapor, and vapor pressures of TEPD and THEPD were calculated from the data on an assumption that the vapor follows the law of ideal gas (gas flow method). The vapor density was calculated by measuring evaporation rate (loss rate) of each sample using an electric balance, and the carrier gas flow rate using a flow meter.
The vapor pressure was calculated from the vapor density based on the following formula.
In the above formula, P represents vapor pressure (mmHg), k represents evaporation rate (mg/min), v represents carrier gas flow rate (ml/min), k/v represents vapor density (mg/ml), M represents molecular weight of each sample, π represents pressure of the system (mmHg) and V represents molar volume of carrier gas (l/mol).

Another data set has as its target T1, Glucose oxidase (GOD) (Aspergillus niger, UniProt P13006).
T1 construct: purchased Boehringer-Mannheim
The data set is described as follows: Electron transfer activity 1: GOD-glucose-compound, current at +300 mV. It is filed as biochemical. The note with it: +300 mV vs Ag/AgCl, pH 6.0. As for the experimental part: Measurement of electron transfer activities of TEPD, TCPD, THEPD, TDHPD, HTEPD, N,N'-BHPD, N,N-BHDPD, N,N'-BHDPD, and p-phenylenediamine derivatives having substituted amino group by reacting p-phenylenediamine with propyleneoxide--1
Glucose oxidase (GOD, manufactured by Boehringer-Mannheim) was dissolved in 0.1M phosphate buffer (pH 6.0) containing 0.1M NaCl to prepare 0M and 4.0×10^-4 M GOD solutions. Also, glucose (manufactured by Junsei Kagaku) was dissolved in the same buffer to prepare a 1.5M solution. In the same manner, each of the TEPD, TCPD, THEPD, TDHPD, HTEPD, N,N-BHDPD, N,N'-BHPD, N,N'-BHDPD, and p-phenylenediamine derivatives having substituted amino group by reacting p-phenylenediamine with propyleneoxide obtained in Synthesis Examples 1 to 9 was dissolved in the same buffer to prepare a 5.0×10^-3 M solution.
Each of these solutions was mixed in 0.1M phosphate buffer (pH 6.0) containing 0.1M NaCl in the following mixing ratio just before the measurement to prepare solutions of the following compositions A and B, and current was measured continuously in the presence (composition A) or absence (composition B) of GOD.
Using the same apparatus of Test Example 2, electric current was measured in the presence (composition A) or absence (composition B) of GOD for 10 minutes under application of potential of +300 mV (vs Ag/AgCl) to the working electrode.

Data set [2] can be described thus: Current response of electron mediators in buffer solution and in the presence of blood, urine. The source says: Of these oxidation-reduction enzymes, glucose oxidase (GOD) is used in enzyme electrodes for the measurement of blood glucose level and horseradish peroxidase (HRPO) is used as a label enzyme in specific binding assays such as DNA hybridization, immunoassay and the like. […] However, these electron mediators were not able to show stable and reproducible response in the presence of blood, urine and the like because of the interfering substances contained therein.

The nature of data set [3]: Dry chemistry type chips: filter paper impregnated with mediator solution and dried on an electrode. The note with it: mediator dried on cellulose or glass filter paper, dissolved by liquid sample. From the text:
In addition, the present inventors have attempted to prepare a dry chemistry type chips by impregnating a piece of cellulose filter paper or glass filter paper with a solution of HQ, PPD, TMPD or TEPD and drying the resulting piece on an electrode (by freeze-drying, vacuum drying, air-drying or the like) or arranging it on an electrode after drying so that the impregnated electron mediator can dissolve in a liquid sample at the time of measurement.

T1 sequence (P13006 17-605): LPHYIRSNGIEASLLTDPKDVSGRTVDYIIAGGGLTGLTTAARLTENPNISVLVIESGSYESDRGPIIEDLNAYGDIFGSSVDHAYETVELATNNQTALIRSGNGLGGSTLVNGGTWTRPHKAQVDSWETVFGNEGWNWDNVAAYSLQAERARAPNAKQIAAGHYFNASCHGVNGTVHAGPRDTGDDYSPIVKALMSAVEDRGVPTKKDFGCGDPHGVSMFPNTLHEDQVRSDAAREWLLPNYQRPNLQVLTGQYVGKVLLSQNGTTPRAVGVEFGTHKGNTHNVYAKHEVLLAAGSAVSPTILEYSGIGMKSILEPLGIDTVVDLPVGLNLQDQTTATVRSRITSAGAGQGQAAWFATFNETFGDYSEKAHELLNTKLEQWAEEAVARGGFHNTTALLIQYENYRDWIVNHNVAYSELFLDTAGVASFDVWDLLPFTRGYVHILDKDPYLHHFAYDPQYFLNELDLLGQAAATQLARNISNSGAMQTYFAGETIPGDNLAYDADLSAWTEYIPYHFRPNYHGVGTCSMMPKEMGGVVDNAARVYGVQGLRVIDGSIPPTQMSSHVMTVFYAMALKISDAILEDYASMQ

Turning to `Cl.Cl.OCCN(CCO)c1ccc(N(CCO)CCO)cc1` [THEPD, N,N,N',N'-tetrakis-(2'-hydroxyethyl)-p-phenylenediamine dihydrochloride], in data set [1] (at 25° C.), the “vapor pressure lower than that of TEPD” value was “about 300 times” and the vapor pressure was 1.3×10^-6 mmHg. Besides, in data set [1] (compared with PPD, TMPD and TEPD, concluded from vapor pressures), the “property in drying (freeze-drying, vacuum drying, air-drying) and stability of dried states” value was “superior to those of PPD, TMPD and TEPD”. Besides, on Glucose oxidase (GOD), the “function as electron mediator between GOD and the electrode” value is “function as a reversible electron mediator between GOD and the electrode”.
Turning to `CCN(CC)c1ccc(N(CC)CC)cc1.Cl.Cl` [TEPD, N,N,N',N'-tetraethyl-p-phenylenediamine dihydrochloride, reference compound], the vapor pressure in data set [1] (at 25° C.) was 4.2×10^-4 mmHg. For the same compound, the current response result in data set [2] (in a buffer solution) is given as “excellent current response”. Also, the “response in the presence of blood, urine and the like” value in data set [2] (interfering substances in blood, urine) is “interference”. Besides, the “current response and characteristics of dry chemistry type chips” value in data set [3] was “low current response and extremely poor characteristics”. Also, at Glucose oxidase (GOD), the “function as electron mediator between GOD and the electrode” value was “function as a reversible electron mediator between GOD and the electrode”.
